Several values for one entry are separate records, joined by “and”; a condition that tells them apart may be missing. Equal values may be shown once. Entries after “also recorded” stand apart in the source; their conditions may differ. Read-outs that look alike come from different tables or passages of the source.
Assays:
Assay type in all cases: in vitro ADME
human OAT3 [1] = target: T1, human OAT3 (Homo sapiens, UniProt Q8TCC7); assay: Uptake transporter substrate assay; conditions: OAT3 UPT; for Maximum fold accumulation over control: maximum seen at 5 µM and 20 min, n = 3
T1 sequence (Q8TCC7 1-542): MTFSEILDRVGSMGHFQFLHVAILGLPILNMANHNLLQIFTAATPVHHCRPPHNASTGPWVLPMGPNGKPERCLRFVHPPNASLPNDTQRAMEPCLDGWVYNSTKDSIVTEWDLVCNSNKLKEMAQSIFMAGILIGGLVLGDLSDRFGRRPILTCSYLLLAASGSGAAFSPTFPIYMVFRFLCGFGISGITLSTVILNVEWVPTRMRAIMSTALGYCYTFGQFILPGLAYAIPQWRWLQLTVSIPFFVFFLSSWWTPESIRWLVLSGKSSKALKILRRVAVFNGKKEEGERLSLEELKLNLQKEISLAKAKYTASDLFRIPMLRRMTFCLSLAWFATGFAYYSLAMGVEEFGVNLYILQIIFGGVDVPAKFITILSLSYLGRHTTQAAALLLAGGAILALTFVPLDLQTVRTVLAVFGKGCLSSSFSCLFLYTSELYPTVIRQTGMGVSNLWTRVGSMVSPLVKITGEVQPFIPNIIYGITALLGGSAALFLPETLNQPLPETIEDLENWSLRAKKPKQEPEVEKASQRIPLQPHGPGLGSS

human OAT1 = target: T2, human OAT1 (Homo sapiens, UniProt Q4U2R8); assay: Uptake transporter substrate assay; conditions: OAT1 UPT; for Maximum fold accumulation over control: maximum seen at 2.5 µM and 20 min, n = 3
T2 sequence (Q4U2R8 1-563): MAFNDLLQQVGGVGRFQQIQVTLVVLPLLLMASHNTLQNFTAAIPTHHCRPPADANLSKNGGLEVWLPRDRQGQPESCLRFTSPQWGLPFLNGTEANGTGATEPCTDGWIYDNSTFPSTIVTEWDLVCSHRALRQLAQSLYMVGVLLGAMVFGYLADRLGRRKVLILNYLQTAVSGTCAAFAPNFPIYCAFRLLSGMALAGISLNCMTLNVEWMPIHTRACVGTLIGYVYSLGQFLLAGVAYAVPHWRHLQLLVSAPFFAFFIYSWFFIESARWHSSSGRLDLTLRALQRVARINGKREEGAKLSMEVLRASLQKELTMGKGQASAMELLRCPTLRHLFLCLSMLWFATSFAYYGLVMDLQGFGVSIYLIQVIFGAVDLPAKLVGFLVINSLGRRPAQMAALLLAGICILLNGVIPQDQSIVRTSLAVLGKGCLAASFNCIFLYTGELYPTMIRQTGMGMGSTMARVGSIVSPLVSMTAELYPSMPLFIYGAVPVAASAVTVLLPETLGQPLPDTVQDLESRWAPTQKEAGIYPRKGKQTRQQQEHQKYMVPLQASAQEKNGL

human OATP1B1 = target: T3, human OATP1B1 (Homo sapiens, UniProt Q9Y6L6); assay: Uptake transporter substrate assay; conditions: OATP1B1 UPT; for Maximum fold accumulation over control: maximum seen at 2.5 µM and 20 min, n = 3
T3 sequence (Q9Y6L6 1-691): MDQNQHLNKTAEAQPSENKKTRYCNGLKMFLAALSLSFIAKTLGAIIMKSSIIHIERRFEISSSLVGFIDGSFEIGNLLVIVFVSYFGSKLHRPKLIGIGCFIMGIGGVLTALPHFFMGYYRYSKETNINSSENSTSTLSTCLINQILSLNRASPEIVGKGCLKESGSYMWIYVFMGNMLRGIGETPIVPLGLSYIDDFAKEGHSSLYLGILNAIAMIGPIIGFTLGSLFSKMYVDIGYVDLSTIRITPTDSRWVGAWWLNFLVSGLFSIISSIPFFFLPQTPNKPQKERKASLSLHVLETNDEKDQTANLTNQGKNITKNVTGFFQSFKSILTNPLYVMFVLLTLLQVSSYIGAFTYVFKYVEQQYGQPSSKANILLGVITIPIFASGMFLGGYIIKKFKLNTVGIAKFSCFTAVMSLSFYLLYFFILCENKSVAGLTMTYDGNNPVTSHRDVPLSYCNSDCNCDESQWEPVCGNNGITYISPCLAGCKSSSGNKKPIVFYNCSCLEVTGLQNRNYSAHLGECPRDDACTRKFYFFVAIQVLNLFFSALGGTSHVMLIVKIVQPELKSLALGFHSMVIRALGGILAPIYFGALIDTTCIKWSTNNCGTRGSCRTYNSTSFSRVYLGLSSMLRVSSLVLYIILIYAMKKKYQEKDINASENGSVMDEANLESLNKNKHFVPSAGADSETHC

human OCT2 = target: T4, human OCT2 (Homo sapiens, UniProt O15244); assay: Transporter inhibition, uptake assay
T4 sequence (O15244 1-555): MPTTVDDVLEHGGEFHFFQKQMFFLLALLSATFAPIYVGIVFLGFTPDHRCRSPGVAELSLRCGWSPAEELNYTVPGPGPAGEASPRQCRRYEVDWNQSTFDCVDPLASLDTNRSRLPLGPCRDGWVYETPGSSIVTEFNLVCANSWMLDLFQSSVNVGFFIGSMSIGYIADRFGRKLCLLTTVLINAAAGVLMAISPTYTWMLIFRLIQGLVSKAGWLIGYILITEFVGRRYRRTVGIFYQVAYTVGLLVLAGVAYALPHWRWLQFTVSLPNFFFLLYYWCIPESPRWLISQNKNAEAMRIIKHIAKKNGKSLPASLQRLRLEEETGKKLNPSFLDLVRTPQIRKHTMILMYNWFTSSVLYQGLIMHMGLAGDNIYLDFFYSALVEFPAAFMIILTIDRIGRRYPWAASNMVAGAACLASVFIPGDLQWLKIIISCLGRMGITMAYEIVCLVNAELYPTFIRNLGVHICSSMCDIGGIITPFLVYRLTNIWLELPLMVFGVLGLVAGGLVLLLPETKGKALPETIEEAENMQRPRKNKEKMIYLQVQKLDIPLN

CYP3A4 = CYP3A4 (Homo sapiens, UniProt P08684); assay: CYP inhibition in pooled human liver microsomes, midazolam or testosterone probe; conditions: for IC50: read-out: IC50, No preincubation, pooled HLMs, n = 3
human OAT3 [2] = target: T1, human OAT3; assay: Transporter inhibition, uptake assay
[3] = listed as 6β‐hydroxy‐21‐desacetyl deflazacort

Sequence of CYP3A4 (P08684 whole entry): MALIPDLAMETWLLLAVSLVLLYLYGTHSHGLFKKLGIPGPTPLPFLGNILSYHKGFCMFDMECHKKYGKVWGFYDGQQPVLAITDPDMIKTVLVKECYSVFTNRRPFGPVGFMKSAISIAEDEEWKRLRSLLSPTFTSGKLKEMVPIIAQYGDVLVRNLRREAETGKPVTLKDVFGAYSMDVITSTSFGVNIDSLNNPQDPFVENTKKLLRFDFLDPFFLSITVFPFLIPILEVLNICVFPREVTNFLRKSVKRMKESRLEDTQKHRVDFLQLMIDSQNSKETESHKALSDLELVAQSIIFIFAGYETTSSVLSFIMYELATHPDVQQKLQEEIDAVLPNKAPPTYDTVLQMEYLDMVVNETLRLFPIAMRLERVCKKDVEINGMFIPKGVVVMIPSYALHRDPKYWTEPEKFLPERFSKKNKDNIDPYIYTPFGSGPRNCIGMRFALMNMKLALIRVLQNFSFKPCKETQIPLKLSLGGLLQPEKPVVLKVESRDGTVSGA

Molecule	Substrate potential (human OAT3 [1])	Fold accumulation over control, in the presence of OAT3 inhibitor (human OAT3 [1]; with inhibitor probenecid) [fold]	Maximum fold accumulation over control (human OAT3 [1]) [fold]	Maximum fold accumulation over control (human OAT1)	Maximum fold accumulation over control (human OATP1B1)	Fold accumulation over control, without inhibitor (inhibitor experiment) (human OAT3 [1]; before inhibitor‐reduced accumulation) [fold]	Substrate potential (human OAT3 [1]; [3])	Substrate potential (human OAT1)	Substrate potential (human OAT1; [3])	inhibitory interaction with transporter (human OCT2; OCT2, up to 50 µM)	Maximum inhibition at 50 µM (human OCT2; OCT2 UPT, n = 3)	Substrate potential (human OATP1B1)	Substrate potential (human OATP1B1; [3])	estimated plasma Cmax/IC50 ratio (CYP3A4; CYP3A4, Cmax 0.34 µM, assumed 100% free)	IC50 (CYP3A4; CYP3A4 (Midazolam))	IC50 (CYP3A4; CYP3A4 (Midazolam), listed as 6β‐hydroxy‐21‐desacetyl deflazacort) [µM]	IC50 (CYP3A4; CYP3A4 (Testosterone)) [µM]	inhibitory interaction with transporter (human OAT3 [2]; OAT3, up to 50 µM)	Maximum inhibition at 50 µM (human OAT3 [2]; OAT3 UPT, n = 3)
[2’-^14C]-6β-hydroxy-21-desacetyl-deflazacort [^14C‐6β‐OH‐21‐desDFZ]	is an OAT3 substrate in vitro	1.08	2.71	< 2 fold	< 2 fold	–	–	–	–	–	–	–	–	–	–	–	–	–	–
CC1=N[C@]2(C(=O)CO)[C@@H](C[C@H]3[C@@H]4C[C@@H](O)C5=CC(=O)C=C[C@]5(C)[C@H]4[C@@H](O)C[C@@]32C)O1 [6β‐OH‐21‐desDFZ, 6β‐Hydroxy‐21‐desacetyl deflazacort]	appeared to be an in vitro substrate; also recorded: in vitro substrate for human OAT3	–	2.71	1.15 at 2.5 µM and 20 min fold	1.02 at 2.5 µM and 20 min fold	1.75	Yes	not a substrate	No	did not show interaction; also recorded: no inhibitory interaction	<20 % of control	not a substrate	No	0.01	~35 µM and ≥ 20 µM	35	> 50	did not show interaction; also recorded: no inhibitory interaction	<20 % of control
